Measured values published in patent US12129237B2, “Substituted diaminocarboxamide and diaminocarbonitrile pyrimidines, compositions thereof, and methods of treatment therewith” (SIGNAL PHARMACEUTICALS, LLC, priority 2011, dated 2024).

Biological target: T1, JNK1 (Homo sapiens, UniProt P45983)
T1 construct: purchased Carna Biosciences
Assay: JNK1 biochemical assays (one or more of: time resolved fluorescence, Z'-LYTE Cascade, radioactive)
Conditions: Table 2; JNK1 IC50 activity level; read-out: Act. Level

T1 sequence (P45983 whole entry): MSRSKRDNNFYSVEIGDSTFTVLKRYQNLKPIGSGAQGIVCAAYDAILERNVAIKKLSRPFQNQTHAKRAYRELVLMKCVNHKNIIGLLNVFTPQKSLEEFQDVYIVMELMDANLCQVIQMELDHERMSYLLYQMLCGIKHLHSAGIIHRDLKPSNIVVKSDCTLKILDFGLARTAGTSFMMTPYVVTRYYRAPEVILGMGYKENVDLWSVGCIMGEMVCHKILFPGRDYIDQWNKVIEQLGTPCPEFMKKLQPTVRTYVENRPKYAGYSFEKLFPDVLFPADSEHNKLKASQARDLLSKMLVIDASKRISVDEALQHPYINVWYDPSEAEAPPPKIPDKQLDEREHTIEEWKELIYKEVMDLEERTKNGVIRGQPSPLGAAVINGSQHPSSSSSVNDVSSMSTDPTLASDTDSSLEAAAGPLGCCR

`NC(=O)c1cnc(N[C@H]2CCc3cccnc3C2)nc1N[C@@H]1CCC[C@H](O)C1` [Example B-87, 4-((1R,3S)-3-hydroxycyclohexylamino)-2-((S)-5,6,7,8-tetrahydroquinolin-7-ylamino)pyrimidine-5-carboxamide] and `NC(=O)c1cnc(N[C@@H]2CCc3cccnc3C2)nc1N[C@@H]1CCC[C@H](O)C1` [Example B-88, 4-((1R,3S)-3-hydroxycyclohexylamino)-2-((R)-5,6,7,8-tetrahydroquinolin-7-ylamino)pyrimidine-5-carboxamide] cannot be ordered by IC50: under 200 nM for the first, under 200 nM for the second.

First: C[C@@H](Nc1ncc(C(N)=O)c(N[C@@H]2CCC[C@H](O)C2)n1)c1ccc(F)cc1 [Example B-89, 2-((R)-1-(4-fluorophenyl)ethylamino)-4-((1R,3S)-3-hydroxycyclohexylamino)pyrimidine-5-carboxamide]
Second: C[C@H](Nc1ncc(C(N)=O)c(N[C@@H]2CCC[C@H](O)C2)n1)c1ccc(F)cc1 [Example B-90, 2-((S)-1-(4-fluorophenyl)ethylamino)-4-((1R,3S)-3-hydroxycyclohexylamino)pyrimidine-5-carboxamide]
The IC50 of the first is lower: under 200 nM for the first, 1000 to 10000 nM for the second.

First: CC(C)Nc1nc(N[C@H]2CCc3cnccc3C2)ncc1C(N)=O [Example B-91, (S)-4-(isopropylamino)-2-(5,6,7,8-tetrahydroisoquinolin-6-ylamino)pyrimidine-5-carboxamide]
Second: CC(C)Nc1nc(N[C@@H]2CCc3cnccc3C2)ncc1C(N)=O [Example B-92, (R)-4-(isopropylamino)-2-(5,6,7,8-tetrahydroisoquinolin-6-ylamino)pyrimidine-5-carboxamide]
The IC50 of the first is higher: 200 to 800 nM for the first, under 200 nM for the second. The second is the more potent here.

`C[C@@H]1CC[C@@H](Nc2nc(N[C@H]3CCc4ncccc4C3)ncc2C(N)=O)C[C@H]1O` [Example B-93, 4-((1R,3R,4R)-3-hydroxy-4-methylcyclohexylamino)-2-((S)-5,6,7,8-tetrahydroquinolin-6-ylamino)pyrimidine-5-carboxamide] and `C[C@@H]1CC[C@@H](Nc2nc(N[C@@H]3CCc4ncccc4C3)ncc2C(N)=O)C[C@H]1O` [Example B-94, 4-((1R,3R,4R)-3-hydroxy-4-methylcyclohexylamino)-2-((R)-5,6,7,8-tetrahydroquinolin-6-ylamino)pyrimidine-5-carboxamide] cannot be ordered by IC50: under 200 nM for the first, under 200 nM for the second.

`NC(=O)c1cnc(N[C@H]2CCc3cnccc3C2)nc1N[C@@H]1CCC[C@H](O)C1` [Example B-95, 4-((1R,3S)-3-hydroxycyclohexylamino)-2-((S)-5,6,7,8-tetrahydroisoquinolin-6-ylamino)pyrimidine-5-carboxamide] and `NC(=O)c1cnc(N[C@@H]2CCc3cnccc3C2)nc1N[C@@H]1CCC[C@H](O)C1` [Example B-96, 4-((1R,3S)-3-hydroxycyclohexylamino)-2-((R)-5,6,7,8-tetrahydroisoquinolin-6-ylamino)pyrimidine-5-carboxamide] cannot be ordered by IC50: under 200 nM for the first, under 200 nM for the second.

`NC(=O)c1cnc(N[C@H]2CCc3ncccc3C2)nc1N[C@@H]1CCCC[C@H](O)C1` [Example B-97, 4-((1R,3S)-3-hydroxycycloheptylamino)-2-((S)-5,6,7,8-tetrahydroquinolin-6-ylamino)pyrimidine-5-carboxamide] and `NC(=O)c1cnc(N[C@@H]2CCc3ncccc3C2)nc1N[C@@H]1CCCC[C@H](O)C1` [Example B-98, 4-((1R,3S)-3-hydroxycycloheptylamino)-2-((R)-5,6,7,8-tetrahydroquinolin-6-ylamino)pyrimidine-5-carboxamide] cannot be ordered by IC50: under 200 nM for the first, under 200 nM for the second.

First: CC1(C)CCC(Nc2ncc(C(N)=O)c(N[C@@H]3CCC[C@H](O)C3)n2)c2ccccc21 (stereo partly drawn) [Example B-99, 2-(4,4-dimethyl-1,2,3,4-tetrahydronaphthalen-1-ylamino)-4-((1R,3S)-3-hydroxycyclohexylamino)pyrimidine-5-carboxamide]
Second: C[C@]1(O)CCC[C@@H](Nc2nc(N[C@@H]3CCc4ncccc4C3)ncc2C(N)=O)C1 [Example B-101, 4-((1R,3S)-3-hydroxy-3-methylcyclohexylamino)-2-((R)-5,6,7,8-tetrahydroquinolin-6-ylamino)pyrimidine-5-carboxamide]
The IC50 of the first is higher: 200 to 800 nM for the first, under 200 nM for the second.

Molecule `C[C@]1(O)CCC[C@@H](Nc2nc(N[C@H]3CCc4ncccc4C3)ncc2C(N)=O)C1` [Example B-102, 4-((1R,3S)-3-hydroxy-3-methylcyclohexylamino)-2-((S)-5,6,7,8-tetrahydroquinolin-6-ylamino)pyrimidine-5-carboxamide] has an IC50 of under 200 nM.

Same assay, conditions: Table 3; JNK1 IC50 activity level; read-out: Act. Level

First: CCO[C@H]1CC[C@H](Nc2ncc(C#N)c(N[C@H]3CCC[C@@H](O)C3)n2)CC1 [Example C-1, 2-((1r,4S)-4-ethoxycyclohexylamino)-4-((1S,3R)-3-hydroxycyclohexylamino) pyrimidine-5-carbonitrile]
Second: CCO[C@H]1CC[C@H](Nc2ncc(C#N)c(N[C@@H]3CCC[C@H](O)C3)n2)CC1 [Example C-2, 2-((1r,4R)-4-ethoxycyclohexylamino)-4-((1R,3S)-3-hydroxycyclohexylamino) pyrimidine-5-carbonitrile]
The IC50 of the first is higher: 200 to 800 nM for the first, under 200 nM for the second.

`N#Cc1cnc(NC2CCC(F)(F)CC2)nc1N[C@@H]1CCC[C@H](O)C1` [Example C-3, 2-(4,4-difluorocyclohexylamino)-4-((1R,3S)-3-hydroxycyclohexylamino) pyrimidine-5-carbonitrile] and `N#Cc1cnc(NC2CCOCC2)nc1N[C@@H]1CCC[C@H](O)C1` [Example C-5, 4-((1R,3S)-3-hydroxycyclohexylamino)-2-(tetrahydro-2H-pyran-4-ylamino)pyrimidine-5-carbonitrile] fall in the same range of IC50: 200 to 800 nM for the first, 200 to 800 nM for the second.

`CO[C@H]1CC[C@H](Nc2ncc(C#N)c(N[C@@H]3CCC[C@H](O)C3)n2)CC1` [Example C-4, 4-((1R,3S)-3-hydroxycyclohexylamino)-2-((1r,4R)-4-methoxycyclohexylamino) pyrimidine-5-carbonitrile] and `N#Cc1cnc(N[C@H]2CC[C@H](OC(F)F)CC2)nc1N[C@@H]1CCC[C@H](O)C1` [Example C-6, 2-((1r,4R)-4-(difluoromethoxy)cyclohexylamino)-4-((1R,3S)-3-hydroxycyclohexylamino) pyrimidine-5-carbonitrile] cannot be ordered by IC50: under 200 nM for the first, under 200 nM for the second.

First: CC(C)(C)Nc1ncc(C#N)c(N[C@@H]2CCC[C@H](O)C2)n1 [Example C-7, 2-(tert-butylamino)-4-((1R,3S)-3-hydroxycyclohexylamino) pyrimidine-5-carbonitrile]
Second: N#Cc1cnc(NC2CCCCC2)nc1N[C@@H]1CCC[C@H](O)C1 [Example C-10, 2-(cyclohexylamino)-4-((1R,3S)-3-hydroxycyclohexylamino) pyrimidine-5-carbonitrile]
The IC50 of the first is higher: 200 to 800 nM for the first, under 200 nM for the second.

`N#Cc1cnc(N[C@H]2CC[C@H](O)CC2)nc1N[C@@H]1CCC[C@H](O)C1` [Example C-8, 4-((1R,3S)-3-hydroxycyclohexylamino)-2-((1r,4R)-4-hydroxycyclohexylamino) pyrimidine-5-carbonitrile] and `CN[C@H]1CC[C@H](Nc2ncc(C#N)c(N[C@@H]3CCC[C@H](O)C3)n2)CC1` [Example C-11, 4-((1R,3S)-3-hydroxycyclohexylamino)-2-((1r,4R)-4-(methylamino)cyclohexylamino) pyrimidine-5-carbonitrile] cannot be ordered by IC50: under 200 nM for the first, under 200 nM for the second.

`CN(C)C(=O)[C@H]1CC[C@H](Nc2ncc(C#N)c(N[C@@H]3CCC[C@H](O)C3)n2)CC1` [Example C-9, (1R,4r)-4-(5-cyano-4-((1R,3S)-3-hydroxycyclohexylamino)pyrimidin-2-ylamino)-N,N-dimethylcyclohexanecarboxamide] and `CC(=O)N[C@H]1CC[C@H](Nc2ncc(C#N)c(N[C@@H]3CCC[C@H](O)C3)n2)CC1` [Example C-13, N-((1R,4r)-4-(5-cyano-4-((1R,3S)-3-hydroxycyclohexylamino)pyrimidin-2-ylamino)cyclohexyl)acetamide] cannot be ordered by IC50: under 200 nM for the first, under 200 nM for the second.

First: CO[C@H]1CC[C@H](Nc2ncc(C#N)c(N[C@H]3CC[C@@H](O)CC3)n2)CC1 [Example C-12, 4-((1s,4s)-4-hydroxycyclohexylamino)-2-((1r,4r)-4-methoxycyclohexylamino) pyrimidine-5-carbonitrile]
Second: CO[C@H]1CC[C@H](Nc2ncc(C#N)c(N[C@H]3CC[C@H](O)CC3)n2)CC1 [Example C-15, 4-((1r,4r)-4-hydroxycyclohexylamino)-2-((1r,4r)-4-methoxycyclohexylamino) pyrimidine-5-carbonitrile]
The IC50 of the first is lower: 200 to 800 nM for the first, 800 to 1000 nM for the second. The first is the more potent here.

Compared with `N#Cc1cnc(N[C@H]2CC[C@H](OCC(F)(F)F)CC2)nc1N[C@@H]1CCC[C@H](O)C1` [Example C-14, 4-((1R,3S)-3-hydroxycyclohexylamino)-2-((1r,4R)-4-(2,2,2-trifluoroethoxy)cyclohexylamino) pyrimidine-5-carbonitril], `CCO[C@H]1CC[C@H](Nc2ncc(C#N)c(NC3CCCCC3)n2)CC1` [Example C-20, 4-(cyclohexylamino)-2-((1r,4r)-4-ethoxycyclohexylamino) pyrimidine-5-carbonitrile] is higher in IC50: under 200 nM for the first, 200 to 800 nM for the second.

`CO[C@H]1CC[C@H](Nc2ncc(C#N)c(N[C@@H]3CCC[C@@H]3CO)n2)CC1` [Example C-16, 4-((1R,2S)-2-(hydroxymethyl)cyclopentylamino)-2-((1r,4R)-4-methoxycyclohexylamino) pyrimidine-5-carbonitrile] and `CO[C@H]1CC[C@H](Nc2ncc(C#N)c(N[C@@H]3CCC[C@H]3O)n2)CC1` [Example C-18, 4-((1R,2R)-2-hydroxycyclopentylamino)-2-((1r,4R)-4-methoxycyclohexylamino) pyrimidine-5-carbonitrile] cannot be ordered by IC50: under 200 nM for the first, under 200 nM for the second.

Compared with `CO[C@H]1CC[C@H](Nc2ncc(C#N)c(NC(C)C)n2)CC1` [Example C-17, 4-(isopropylamino)-2-((1r,4r)-4-methoxycyclohexylamino) pyrimidine-5-carbonitrile], `CO[C@H]1CC[C@H](Nc2ncc(C#N)c(N[C@@H]3CCC[C@](C)(O)C3)n2)CC1` [Example C-19, 4-((1R,3S)-3-hydroxy-3-methylcyclohexylamino)-2-((1r,4R)-4-methoxycyclohexylamino) pyrimidine-5-carbonitrile] is lower in IC50: 800 to 1000 nM for the first, under 200 nM for the second.
